In patent US20180201592A1, “2-AMINO-1,3,4-THIADIAZINE AND 2-AMINO-1,3,4-OXADIAZINE BASED ANTIFUNGAL AGENTS” (F2G Limited, priority 2015, published 2018):
≈ marks a conversion by molar mass, not a printed value. Where two headings read alike, the source gives them in different places.

What was measured:
A. fumigatus 210 = experiment: Minimum inhibitory concentration, YAG medium; type: cell-based, Aspergillus fumigatus; settings: banded MIC grade; for MIC: Aspergillus fumigatus, 210, YAG media
Outline: (§1)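 Spores from 5-day Sabouraud agar cultures were suspended in YAG medium (1% glucose, 1% ammonium chloride, 0.5% yeast extract) at 1-2×10^4 cfu/mL and exposed to doubling dilutions of compound (50-0.05 mg/L) for 24 hrs at 35° C. MIC was the lowest concentration giving >70% growth inhibition by OD485 versus drug-free control.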

Aspergillus fumigatus = experiment: Minimum inhibitory concentration, YAG medium; type: cell-based; settings: banded MIC grade; for MIC: Aspergillus fumigatus, YAG media
Outline: as §1

A. terreus 49 = experiment: Minimum inhibitory concentration, YAG medium; type: cell-based, Aspergillus terreus; settings: banded MIC grade; for MIC: Aspergillus terreus, 49, YAG media
Outline: (§2)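 Compound in DMSO (5 mg/mL stock), diluted in water and doubling-diluted; Aspergillus spores grown in YAG medium 24 hrs at 35° C. Growth read as optical density at 485 nm; MIC given in mg/L.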

C. parapsilosis = experiment: Minimum inhibitory concentration, RPMI medium; type: cell-based; settings: banded MIC grade; for MIC: Lodderomyces parapsilosis, RPMI media
Outline: (§3)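 Broth microdilution in RPMI 1640 medium using doubling dilutions in water prepared from a 5 mg/mL DMSO stock. Plates incubated 24-48 hrs at 35° C; growth read as optical density at 485 nm.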

C. tropicalis = experiment: Minimum inhibitory concentration, RPMI medium; type: cell-based; settings: banded MIC grade; for MIC: Candida tropicalis, RPMI media
Outline: as §3

C. albicans = experiment: Minimum inhibitory concentration, RPMI medium; type: cell-based; settings: banded MIC grade; for MIC: Candida albicans, RPMI media
Outline: as §3

Aspergillus niger = experiment: Minimum inhibitory concentration, YAG medium; type: cell-based; settings: banded MIC grade; for MIC: Aspergillus niger, YAG media
Outline: as §2

Aspergillus terreus = experiment: Minimum inhibitory concentration, YAG medium; type: cell-based; settings: banded MIC grade; for MIC: Aspergillus terreus, YAG media
Outline: as §2

Aspergillus flavus = experiment: Minimum inhibitory concentration, YAG medium; type: cell-based; settings: banded MIC grade; for MIC: Aspergillus flavus, YAG media
Outline: as §2

[1] = read-out: MIC grade C. PARAPSILOSIS
[2] = read-out: MIC grade, C. PARAPSILOSIS, RPMI media
[3] = read-out: MIC grade C. ALBICANS
[4] = read-out: MIC grade, C. ALBICANS, RPMI media

Compound	MIC grade, A. FUMIGATUS 210, YAG media (A. fumigatus 210)	MIC grade, A. FUMIGATUS, YAG media (Aspergillus fumigatus)	MIC grade, A. TERREUS 49, YAG media (A. terreus 49)	MIC grade, C. PARAPSILOSIS, RPMI media (C. parapsilosis)	MIC grade, C. TROPICALIS, RPMI media (C. tropicalis)	MIC grade, C. ALBICANS, RPMI media (C. albicans)	MIC grade, A. NIGER, YAG media (Aspergillus niger)	MIC grade, A. TERREUS, YAG media (Aspergillus terreus)	MIC grade, A. FLAVUS, YAG media (Aspergillus flavus)	MIC (A. fumigatus 210) [µg/mL]	MIC (Aspergillus fumigatus) [µg/mL]	MIC (A. terreus 49) [µg/mL]	MIC (C. parapsilosis; [1]) [µg/mL]	MIC (C. parapsilosis; [2]) [µg/mL]	MIC (C. tropicalis) [µg/mL]	MIC (C. albicans; [3]) [µg/mL]	MIC (C. albicans; [4]) [µg/mL]	MIC (Aspergillus niger) [µg/mL]	MIC (Aspergillus terreus) [µg/mL]	MIC (Aspergillus flavus) [µg/mL]
NC1=NN=C(CCOCc2ccc(-c3ccccc3)cc2)CS1	1 (1: ≥5 mg/L)	1 (1: ≥5 mg/L)	3 (3: 0.2-1 mg/L)	2 (2: 5-20 mg/L)	2 (2: 5-20 mg/L)	1 (1: ≥20 mg/L)	3 (3: 0.2-1 mg/L)	3 (3: 0.2-1 mg/L)	3 (3: 0.2-1 mg/L)											
NC1=NN=C(CCOCc2ccccc2)CS1	2 (2: 1-5 mg/L)	3 (3: 0.2-1 mg/L)	3 (3: 0.2-1 mg/L)	3 (3: 1-5 mg/L)	1 (1: ≥20 mg/L)	1 (1: ≥20 mg/L)	3 (3: 0.2-1 mg/L)	3 (3: 0.2-1 mg/L)	3 (3: 0.2-1 mg/L)											
CCOC(=O)c1cccc(C2=NN=C(N)SC2)c1	1 (1: ≥5 mg/L)	1 (1: ≥5 mg/L)	1 (1: ≥5 mg/L)	1 (1: ≥20 mg/L)	1 (1: ≥20 mg/L)	1 (1: ≥20 mg/L)	1 (1: ≥5 mg/L)	1 (1: ≥5 mg/L)	1 (1: ≥5 mg/L)											
Cc1ccc(C2=CSC(N)=NN2C)cc1 [4-methyl-5-(p-tolyl)-1,3,4-thiadiazin-2-amine]										< 0.2	< 0.2	< 0.2	≥ 20	1 to 5 (≈ 4.56 to 22.8 µM)	≥ 20	< 1	5 to 20 (≈ 22.8 to 91.2 µM)	0.2 to 1 (≈ 0.912 to 4.56 µM)	< 0.2	0.2 to 1 (≈ 0.912 to 4.56 µM)
N#Cc1ccc(C2=NN=C(N)SC2)cc1	2 (2: 1-5 mg/L)	1 (1: ≥5 mg/L)	2 (2: 1-5 mg/L)	1 (1: ≥20 mg/L)	1 (1: ≥20 mg/L)	1 (1: ≥20 mg/L)	2 (2: 1-5 mg/L)	2 (2: 1-5 mg/L)	2 (2: 1-5 mg/L)											
NC1=NN=C(c2ccccc2)CS1 [5-phenyl-6~{H}-1,3,4-thiadiazin-2-amine]	3 (3: 0.2-1 mg/L)	3 (3: 0.2-1 mg/L)	3 (3: 0.2-1 mg/L)	1 (1: ≥20 mg/L)	1 (1: ≥20 mg/L)	1 (1: ≥20 mg/L)	3 (3: 0.2-1 mg/L)	3 (3: 0.2-1 mg/L)	3 (3: 0.2-1 mg/L)											
CN1N=C(N)SC=C1c1ccc(Cl)c(Cl)c1 [5-(3,4-dichlorophenyl)-4-methyl-1,3,4-thiadiazin-2-amine]										1 to 5 (≈ 3.65 to 18.2 µM)	1 to 5 (≈ 3.65 to 18.2 µM)	0.2 to 1 (≈ 0.729 to 3.65 µM)	≥ 20	≥ 20	≥ 20	5 to 20 (≈ 18.2 to 72.9 µM)	≥ 20	1 to 5 (≈ 3.65 to 18.2 µM)	1 to 5 (≈ 3.65 to 18.2 µM)	≥ 5
CCCCOc1cccc(C2=NN=C(N)SC2)c1	1 (1: ≥5 mg/L)	1 (1: ≥5 mg/L)	1 (1: ≥5 mg/L)	1 (1: ≥20 mg/L)	1 (1: ≥20 mg/L)	1 (1: ≥20 mg/L)	1 (1: ≥5 mg/L)	1 (1: ≥5 mg/L)	1 (1: ≥5 mg/L)											
